In US10544112B2, “Identification of ebsulfur analogues with broad-spectrum antifungal activity” (priority 2017, dated 2020):
≈ marks a conversion by molar mass, not a printed value.

Key:
[1] = system: C. albicans ATCC 64124 (strain B); assay: microbe, parasite or virus in culture; format: cell-based, Candida albicans; details: strain B; compounds 1-4n and AmB; 48 h, RPMI 1640
Protocol: (§1) Fungal MIC determination experiments were performed using untreated 96-well plates (Corning). Cells were counted either by using a hemocytometer (Hausser Scientific, Horsham, Pa., USA) or by measuring optical density at attenuance of 600 nm (OD600) by using a Genesys 20 spectrophotometer (Thermo Scientific, Waltham, Mass., USA). Spectrophotometric and colorimetric measurements in 96-well plates were performed using a SpectraMax M5 spectrometer (Molecular Devices, Sunnyvale, Calif., USA).
(§2) Yeast strains Candida albicans ATCC 10231 (strain A), C. albicans ATCC 64124 (strain B), and C. albicans ATCC MYA-2876(S) (strain C) were kindly provided by Dr. Jon Y. Takemoto (Utah State University, Logan, UT, USA). C. albicans ATCC MYA-90819(R) (strain D), C. albicans ATCC MYA-2310(S) (strain E), C. albicans ATCC 1237(R) (strain F), C. albicans ATCC MYA-1003(R) (strain G), Candida glabrata ATCC 2001 (strain H), Candida krusei ATCC 6258 (strain I), and Candida parapsilosis ATCC 22019 (strain J) were obtained from the American Type Culture Collection (ATCC, Manassas, Va., USA). The (S) and (R) indicate that ATCC reports these strains to be susceptible (S) and resistant (R) to ITC and FLC. The filamentous fungal strains Aspergillus flavus ATCC MYA-3631 (strain K), and Aspergillus terreus ATCC MYA-3633 (strain M) were also obtained from the American Type Culture Collection (ATCC, Manassas, Va., USA). Aspergillus nidulans ATCC 38163 (strain L) was kindly provided by Dr. Jon S. Thorson (University of Kentucky, Lexington, Ky., USA), respectively. Yeast strains were cultured at 35° C. Filamentous fungal strains were cultured at 25° C. and the spores were harvested. All fungal strains were cultured in RPMI 1640 medium (catalog # R6504, Sigma-Aldrich Chemical Co., St. Louis, Mo.) buffered to pH 7.0 with 0.165 M morpholinepropanesulfonic acid (MOPS) buffer (Sigma-Aldrich Chemical Co.).
(§3) The MIC values against fungal strains were determined based on a previously published protocol. MIC values for ebsulfur (2a) analogues against fungal cells were evaluated in 96-well plates as described in the CLSI document M27-A3 with minor modifications. […] Therefore, potato dextrose broth (PDB) was used to grow the yeast inocula of all strains tested, which were later diluted in RPMI 1640 medium to perform determination of MIC values. […] The tested compounds (10 mg/mL) were diluted to the working stocks (500 μg/mL) by addition of DMSO. Two-fold serial dilution of the working stocks was prepared by addition of RPMI 1640 medium (100 μL) and cell suspension (100 μL) to 96-well microtiter plate to achieve final drug and inoculum concentrations ranging from 12.5-0.02 μg/mL and 5×10^3 CFU/mL, respectively. Plates were incubated for 48 h at 35° C. […]

[2] = system: C. albicans ATCC 90819(R) (strain D); assay: microbe, parasite or virus in culture; format: cell-based, Candida albicans; details: strain D; compounds 1-4n and AmB; 48 h, RPMI 1640
Protocol: as §1, §2, §3

[3] = system: C. albicans ATCC MYA-1003(R) (strain G); assay: microbe, parasite or virus in culture; format: cell-based, Candida albicans; details: strain G; compounds 1-4n and AmB; 48 h, RPMI 1640
Protocol: as §1, §2, §3

[4] = system: C. albicans ATCC MYA-1237(R) (strain F); assay: microbe, parasite or virus in culture; format: cell-based, Candida albicans; details: strain F; compounds 1-4n and AmB; 48 h, RPMI 1640
Protocol: as §1, §2, §3

[5] = system: C. albicans ATCC MYA-2310(S) (strain E); assay: Antifungal MIC determination (CLSI M27-A3, 96-well); format: cell-based, Candida albicans; details: strain E; compounds 1-4n and AmB; 48 h, RPMI 1640
Protocol: as §1, §2, §3

[6] = system: C. albicans ATCC MYA-2876(S) (strain C); assay: as above; format: cell-based, Candida albicans; details: strain C; compounds 1-4n and AmB; 48 h, RPMI 1640
Protocol: as §1, §2, §3

[7] = system: Candida albicans ATCC 10231 (strain A); assay: as above; format: cell-based; details: strain A; compounds 1-4n and AmB; 48 h, RPMI 1640
Protocol: as §1, §2, §3

[8] = system: Candida glabrata ATCC 2001 (strain H); assay: as above; format: cell-based; details: strain H; compounds 1-4n and AmB; 48 h, RPMI 1640
Protocol: as §1, §2, §3

[9] = system: Candida krusei ATCC 6258 (strain I); assay: as above; format: cell-based; details: strain I; compounds 1-4n and AmB; 48 h, RPMI 1640
Protocol: as §1, §2, §3

[10] = system: Candida parapsilosis ATCC 22019 (strain J); assay: as above; format: cell-based; details: strain J; compounds 1-4n and AmB; 48 h, RPMI 1640
Protocol: as §1, §2, §3

[11] = system: Aspergillus flavus ATCC MYA-3631 (strain K); assay: Antifungal MIC determination, filamentous fungi spores; format: cell-based; details: all compounds
Protocol: as §1, §2
(§4) The MIC values against fungal strains were determined based on a previously published protocol. MIC values for ebsulfur (2a) analogues against fungal cells were evaluated in 96-well plates as described in the CLSI document M27-A3 with minor modifications. […] Therefore, potato dextrose broth (PDB) was used to grow the yeast inocula of all strains tested, which were later diluted in RPMI 1640 medium to perform determination of MIC values. […] The tested compounds (10 mg/mL) were diluted to the working stocks (500 μg/mL) by addition of DMSO. Two-fold serial dilution of the working stocks was prepared by addition of RPMI 1640 medium (100 μL) and cell suspension (100 μL) to 96-well microtiter plate to achieve final drug and inoculum concentrations ranging from 12.5-0.02 μg/mL and 5×10^3 CFU/mL, respectively. Plates were incubated for 48 h at 35° C.
(§5) MIC assays for the spore-forming filamentous fungi, such as strain A. flavus ATCC MYA-3631 (strain K), were performed in a similar fashion. The filamentous fungal strains were first cultured at 25° C. on potato dextrose agar (PDA) plates for 3-5 days or until confluent. Spores were collected by washing the surface of the agar plates with dd H2O (5 mL) and then isolated the spores by gravity filtration (the spores are H2O soluble). […] Researchers working with spores should wear a facemask to prevent spore inhalation.

[12] = system: Aspergillus nidulans ATCC 38163 (strain L); assay: as above; format: cell-based; details: strain L; spores
Protocol: as §1, §2, §4, §5

[13] = system: Aspergillus terreus ATCC MYA-3633 (strain M); assay: as above; format: cell-based; details: strain M; all compounds; spores
Protocol: as §1, §2, §4, §5

Candida strains (A-J) = assay: Antifungal MIC, summary over panel of Candida strains; format: cell-based; details: Candida strains A-J
Protocol: as §1, §2, §3

`O=c1c2ccccc2sn1C1CCCCC1` [Compound 3l] was tested, and the MIC-0 [1] was 1.56 µg/mL (≈ 6.69 µM), the MIC-0 [2] was 0.78 µg/mL (≈ 3.34 µM) and the MIC-0 [3] was 1.56 µg/mL (≈ 6.69 µM). For the same compound, the MIC-0 [4] was 0.78 µg/mL (≈ 3.34 µM), the MIC-0 [5] was 1.56 µg/mL (≈ 6.69 µM) and the MIC-0 [6] was 3.13 µg/mL (≈ 13.4 µM). It also gave an MIC-0 [7] of 0.78 µg/mL (≈ 3.34 µM), an MIC-0 [8] of 1.56 µg/mL (≈ 6.69 µM) and an MIC-0 [9] of 0.78 µg/mL (≈ 3.34 µM). It also gave an MIC-0 [10] of 1.56 µg/mL (≈ 6.69 µM), an MIC-0 [11] of 0.20 µg/mL (≈ 0.857 µM) and an MIC-0 [12] of 0.20 µg/mL (≈ 0.857 µM). The MIC-0 [13] was 0.20 µg/mL (≈ 0.857 µM) and the “MIC values against Candida strains, range” value (shortened to “MIC values”) (Candida strains (A-J)) was 0.78 to 3.13 µg/mL.

For `O=c1c2ccccc2sn1-c1ccc(Cl)cn1` [Compound 2n], the MIC-0 [1] was 12.5 µg/mL (≈ 47.6 µM), the MIC-0 [2] was over 12.5 µg/mL and the MIC-0 [3] was 12.5 µg/mL (≈ 47.6 µM). The MIC-0 [4] was 12.5 µg/mL (≈ 47.6 µM), the MIC-0 [5] was 12.5 µg/mL (≈ 47.6 µM) and the MIC-0 [6] was 12.5 µg/mL (≈ 47.6 µM). The MIC-0 [7] was 12.5 µg/mL (≈ 47.6 µM), the MIC-0 [8] was over 12.5 µg/mL and the MIC-0 [9] was over 12.5 µg/mL. It also gave an MIC-0 [10] of over 12.5 µg/mL, an MIC-0 [11] of over 12.5 µg/mL and an MIC-0 [12] of over 12.5 µg/mL. The MIC-0 [13] was over 12.5 µg/mL and the “MIC values” value (Candida strains (A-J)) was over 12.5 µg/mL.

With `O=c1c2ccccc2sn1-c1cccc(Br)c1` [Compound 2g] the MIC-0 [1] was 12.5 µg/mL (≈ 40.8 µM), the MIC-0 [2] was 12.5 µg/mL (≈ 40.8 µM) and the MIC-0 [3] was 12.5 µg/mL (≈ 40.8 µM). It also gave an MIC-0 [4] of 12.5 µg/mL (≈ 40.8 µM), an MIC-0 [5] of over 12.5 µg/mL and an MIC-0 [6] of 12.5 µg/mL (≈ 40.8 µM). The MIC-0 [7] was over 12.5 µg/mL, the MIC-0 [8] was 12.5 µg/mL (≈ 40.8 µM) and the MIC-0 [9] was 12.5 µg/mL (≈ 40.8 µM). The MIC-0 [10] was 12.5 µg/mL (≈ 40.8 µM), the MIC-0 [11] was 12.5 µg/mL (≈ 40.8 µM) and the MIC-0 [12] was 12.5 µg/mL (≈ 40.8 µM). The MIC-0 [13] was 12.5 µg/mL (≈ 40.8 µM) and the “MIC values” value (Candida strains (A-J)) was over 12.5 µg/mL.

In the case of `O=c1c2ccccc2sn1C1CCCC1` [Compound 3k], the MIC-0 [1] is reported as 1.56 µg/mL (≈ 7.11 µM), the MIC-0 [2] is reported as 0.39 µg/mL (≈ 1.78 µM) and the MIC-0 [3] is reported as 0.78 µg/mL (≈ 3.56 µM). For the same compound, the MIC-0 [4] was 0.39 µg/mL (≈ 1.78 µM), the MIC-0 [5] was 0.39 µg/mL (≈ 1.78 µM) and the MIC-0 [6] was 0.78 µg/mL (≈ 3.56 µM). For the same compound, the MIC-0 [7] was 0.39 µg/mL (≈ 1.78 µM), the MIC-0 [8] was 0.78 µg/mL (≈ 3.56 µM) and the MIC-0 [9] was 0.39 µg/mL (≈ 1.78 µM). It also gave an MIC-0 [10] of 1.56 µg/mL (≈ 7.11 µM), an MIC-0 [11] of 0.20 µg/mL (≈ 0.912 µM) and an MIC-0 [12] of 0.10 µg/mL (≈ 0.456 µM). The MIC-0 [13] was 0.10 µg/mL (≈ 0.456 µM) and the “MIC values” value (Candida strains (A-J)) was 0.39 to 1.56 µg/mL.

`O=c1c2ccccc2sn1-c1ccc(F)cc1` [Compound 2b] gave an MIC-0 [1] of 6.25 µg/mL (≈ 25.5 µM), an MIC-0 [2] of 3.13 µg/mL (≈ 12.8 µM) and an MIC-0 [3] of 1.56 µg/mL (≈ 6.36 µM). It also gave an MIC-0 [4] of 6.25 µg/mL (≈ 25.5 µM), an MIC-0 [5] of 3.13 µg/mL (≈ 12.8 µM) and an MIC-0 [6] of 3.13 µg/mL (≈ 12.8 µM). The MIC-0 [7] was 3.13 µg/mL (≈ 12.8 µM), the MIC-0 [8] was 6.25 µg/mL (≈ 25.5 µM) and the MIC-0 [9] was 3.13 µg/mL (≈ 12.8 µM). It also gave an MIC-0 [10] of 12.5 µg/mL (≈ 51 µM), an MIC-0 [11] of 6.25 µg/mL (≈ 25.5 µM) and an MIC-0 [12] of 12.5 µg/mL (≈ 51 µM). The MIC-0 [13] was 12.5 µg/mL (≈ 51 µM).
